The values below come from patent US20130197030A1, “Substituted 1,3-Dioxanes and There Uses” (Evolva Sa, priority 2007, published 2013).

The target in assay [1] is T1, Thromboxane receptor (TP) (Homo sapiens, UniProt P21731).
T1 construct: expressed in transfected cells; host or cells: HEK-293 cells
T1 sequence (P21731 1-343): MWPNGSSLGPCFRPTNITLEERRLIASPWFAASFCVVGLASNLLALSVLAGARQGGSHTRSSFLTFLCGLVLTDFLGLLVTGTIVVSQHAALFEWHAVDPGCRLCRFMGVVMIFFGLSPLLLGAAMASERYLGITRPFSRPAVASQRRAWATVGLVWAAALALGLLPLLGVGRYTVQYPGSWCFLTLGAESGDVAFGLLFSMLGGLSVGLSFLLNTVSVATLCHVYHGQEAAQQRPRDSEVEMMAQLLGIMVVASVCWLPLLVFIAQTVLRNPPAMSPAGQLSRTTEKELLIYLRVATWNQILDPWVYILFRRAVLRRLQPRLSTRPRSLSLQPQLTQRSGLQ
As to the kind of experiment: TP receptor radioligand binding. The note with it: Human recombinant HEK-293 cells, 5 nM [3H] SQ-29548. On the procedure:
The compounds were tested on radioligand binding assays for thromboxane receptor binding essentially as described by Hedberg et al. (1988) J. Pharmacol. Exp. Ther. 245:786-792 and Saussy et al. (1986) J. Biol. Chem. 261: 3025-3029 according to the following:
TP Receptor Radioligand Binding Studies:
Human recombinant HEK-293 cells,
Incubation Time, Temp: 30 minutes at 25° C.
Incubation Buffer: 50 mM Tris-HCl, pH 7.4, 154 mM NaCl
Non-Specific Ligand: 1 μM SQ-29548
The data were transformed to semi-log and then analysed using non-linear regression to a four-parameter dose-response curve Y=Bottom+(Top−Bottom)/(1+10̂((LogEC50−X)*HillSlope)) using the log(agonist) vs. response—Variable slope function of GraphPad Prism software (http://graphpad.com/help/prism5/prism5help.html?usingnonlinear_regression_step_by_s.htm).

Assay [2] deals with U-46619-induced platelet aggregation. The experiment in a line: TP receptor platelet aggregation, rabbit. Format: cell-based, New Zealand Rabbit. Here is the method:
Thrombosis Research 33:277-288.
TP Receptor Platelet Aggregation—Rabbit:
New Zealand Rabbit (2.75±0.25 kg) platelet rich plasma
Assay: Inhibition of 1.5 μM U-46619-induced platelet aggregation Incubation Time, Temp: 5 minutes at 37° C. Incubation Buffer Trisodium Citrate (0.13 M)-treated platelet rich plasma
Time of Assessment: 5 minutes
Quantification Method Optical Density Change

In assay [3] the test system is arterial thrombosis in a mouse model. The experiment in a line: Arterial thrombosis in a mouse model (FeCl3, femoral artery). Format: in vivo. The note with it: mice; dose not given. On the procedure: The solutions are diluted 3.3-fold in saline and 100 μl/25 g is injected. Thus, the above-mentioned doses of 100 and 300 mg/kg of compound correspond to final doses of 30 and 100 mg/kg.
During the experiments, a soluble salt of the drug is provided (e.g., potassium salt of compound C), diluted in saline. Of this formulation, 100 μl/25 g is injected i.v. in the tail vein (dose of 100 mg/kg).
Solutions are injected (100 μl/25 g body weight) i.v. in the tail vein over 2 min to obtain doses of each compound of 30 mg/kg and 100 mg/kg. Aspirin is given the same way at a dose of 200 mg/kg. Clopidogrel is administered by oral gavage at a dose of 20 mg/kg at 6-7 hours prior to the experiment. The animals assigned to each group are matched for body weight. Mice are typically 8-10 weeks old males and are in a 100% Swiss genetic background.
The flow in each image is expressed as a percentage of that at the contralateral side, and data are averaged for all 120 images to determine total flow. The same analysis is performed for 10 min intervals (which gives essentially the same information as the area under the curve). […] Flow before treatment is recorded as 100%, and that in occluded arteries as 0%. At the end of the experiment, blood is collected on 0.01M citrate buffer by heart puncture for determination of blood cell counts. Plasma is prepared by centrifugation and stored at −20° C. for determination of drug levels.
Statistical analysis for differences between two groups is performed by non-parametric Student t-test. Occlusion times >30 min were considered equal to 30 min for statistical analysis. Significance is set at p<0.05.

In assay [4] the target is T2, Human Recombinant (E. coli) PPARgamma (Homo sapiens, UniProt P37231).
T2 construct: host or cells: E. coli
T2 sequence (P37231 1-505): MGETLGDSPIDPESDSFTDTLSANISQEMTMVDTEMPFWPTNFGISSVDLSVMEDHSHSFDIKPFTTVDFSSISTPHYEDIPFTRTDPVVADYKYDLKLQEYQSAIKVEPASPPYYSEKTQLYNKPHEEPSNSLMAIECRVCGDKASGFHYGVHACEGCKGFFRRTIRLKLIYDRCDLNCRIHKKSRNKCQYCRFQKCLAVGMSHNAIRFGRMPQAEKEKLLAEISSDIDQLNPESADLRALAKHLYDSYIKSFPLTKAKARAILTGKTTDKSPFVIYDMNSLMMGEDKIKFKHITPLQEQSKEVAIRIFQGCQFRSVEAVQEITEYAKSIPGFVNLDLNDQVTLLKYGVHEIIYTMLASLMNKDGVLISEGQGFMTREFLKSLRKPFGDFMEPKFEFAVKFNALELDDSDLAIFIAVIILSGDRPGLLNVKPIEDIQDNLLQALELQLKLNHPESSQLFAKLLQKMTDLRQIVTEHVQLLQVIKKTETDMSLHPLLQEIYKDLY
As to the kind of experiment: PPAR gamma binding assay. Here is the method: Incubation: 120 min. at 4° C.
The results are expressed as a percent of control specific binding ((measured specific binding/control specific binding)×100) obtained in the presence of the test compounds. The IC50 values (concentration causing a half-maximal inhibition of control specific binding) and Hill coefficients (nil) were determined by non-linear regression analysis of the competition curves generated with mean replicate values using Hill equation curve fitting (Y=D+[(A−D)/(1+(C/C50)nH)], where Y=specific binding, D=minimum specific binding, A=maximum specific binding, C=compound concentration, C50=IC50, and nH=slope factor). This analysis was performed using a software developed at Cerep (Hill software) and validated by comparison with data generated by the commercial software SigmaPlot 4.0 for Windows® (© 1997 by SPSS Inc.). The inhibition constants (Ki) were calculated using the Cheng Prusoff equation (Ki=IC50/(1+(L/KD)), where L=concentration of radioligand in the assay, and KD=affinity of the radioligand for the receptor).

For `O=C(O)CC/C=C\CC1COC(c2coc3ccc(Cl)cc3c2=O)OC1c1ccccc1O` (racemic) [Compound 3, (Z)-6-(2-(6-Chloro-4-oxo-4H-chromen-3-yl)-4-(2-hydroxyphenyl)-1,3-dioxan-5-yl)hex-4-enoic acid], in assay [1], the IC50 (commonly the concentration that inhibits the measured activity by half) came out at 0.0152 µM; the Ki – broadly, the dissociation constant of the complex between target and ligand, obtained from inhibition or displacement – was 0.0099 µM. Moreover, in assay [1] (at 10 μM), the inhibition (commonly how much of the control response was suppressed) at 10 µM came out at 97%. Also, the “Inhibition of platelet aggregation (in words)” value in assay [2] is reported as “potent inhibitors of platelet aggregation”. Further, 30 µM produced 100% inhibition in assay [2] (Oryctolagus cuniculus, at 30 μM, 1.5 μM U-46619, platelet rich plasma). Moreover, in assay [3], the Occlusion time entry is given as “prolongs the occlusion time” and the Total blood flow entry is on record as “improves total blood flow”. In addition, in assay [4] ([3H]-rosiglitazone 10 nM, Cheng Prusoff, read-out: PPARγ binding Ki), the Ki turned out to be 2.7 µM. In addition, the 50% inhibitory concentration (IC50) in assay [4] ([3H]-rosiglitazone 10 nM, read-out: PPARγ binding IC50) turned out to be 7.4 µM. In addition, the “Binding to PPARgamma (in words)” value in assay [4] (compared with Compound A) is reported as “binds to PPARgamma at least as well as Compound A”.
